Results reported in US9271504B2, “Insecticidal compositions and uses thereof” (Board of Trustees of Michigan State University, priority 2005, dated 2016).
Several values for one entry are separate records, joined by “and”; a condition that tells them apart may be missing. Identical values can stand only once.

Experiments:
[1] = test system: 3rd instar Colorado potato beetle larvae; test: Contact toxicity bioassay (Potter spray tower), 3rd instar larvae; settings: 2 ml of 40% (w/w) plant suspension
Method: Fifty grams of sample were placed into 1000 ml Erlemneyer flasks with 500 ml of methanol (Sigma). Flasks were covered with aluminum foil, placed on a horizontal shaker (HS 260 Basic, IKA Group) and shaken (120 oscillations/min for 24 h) in the dark. The suspension was filtered through two layers of cheese cloth, transferred into a 250 ml evaporating flask and excess methanol evaporated in a rotary evaporator (RV 05 Basic 1B, IKA Group) at 32±2° C. The resulting residue was weighted and eluted with sufficient distilled water containing 10% acetone (w/w) to yield a 40% (w/w) plant suspension.
Two ml of the distilled water containing 10% acetone was also applied to 20 larvae in each replicate as a negative control along with imidacloprid (CONFIDOR SL, Bayer) at manufacturer recommended rate as a positive control. After spraying, the larvae were transferred into 1000 ml glass jars and provided with fresh potato leaflets. The top of each jar was covered with cheese cloth and held at 28±2° C. and 16 h: 8 h light dark photo regime. Mortalities were recorded at 24 h intervals for 7 days. […] Each treatment was replicated three times within a trial and each trial was repeated three times.
Data were corrected for mortality in the controls using Abbotts formula and then normalized using arcsine transformation. Transformed data were analyzed using ANOVA (∝=0.05) and Tukeys mean separation (∝=0.05). […]

[2] = test system: 3rd instar Colorado potato beetle larvae; test: Residual (stomach poison) toxicity bioassay on treated potato leaflets; type: in vivo, Leptinotarsa decemlineata; settings: leaflets treated with 20% (w/w) extract
Method: Stomach poison effects of the thirty plant extracts were assed by morbidity assays using 3rd instar larvae fed on treated potato leaflets.
Leaflets were treated with 2 ml of each plant extract suspension in distilled water containing 10% acetone with the Potter Spray Tower set at 10 PSI with a 0.7 mm internal diameter nozzle. After treatment, the leaflets were dried at room temperature for about 5 min. The cut end of each leaflet petiole was covered with a 30×55 mm piece of sterile cotton wool, which was moistened with 2 ml of water containing 1% NPK (20-20-20) fertilizer. This treatment ensured that the excised leaflet remained green for at least 7 days. Treated leaflets were transferred into 1000 ml glass jars to which 20 3rd instar larvae were added before incubation as described above. Mortalities were assessed at 24 hr intervals for 7 days. Control leaflets were treated with 2 ml of distilled water containing 10% acetone and the standard imidacloprid control was used as described above. Each treatment was repeated three times per block and blocks were completed in a randomized complete block design.

[3] = test system: Colorado potato beetle 1st-4th instar larvae and adults; test: Contact toxicity to various development stages; type: in vivo, Leptinotarsa decemlineata; settings: 48 h incubation, 40% (w/w) suspension
Method: The plant samples were prepared according to the procedure described above. Nine extracts were used in this study. The plants (Table 8) were all collected during spring and summer of 2002. Samples were dried at room temperature and were ground for 5 min in a mill (M 20 IKA Universal Mill, IKA Group). […] For the dose-mortality bioassay, H. lupulus extract stock suspension was prepared as described above, containing 50% (w/w) plant extract/water with 10% acetone, and diluted in distilled water containing 10% acetone (w/w) to produce solutions containing 2.5, 5, 10, 20 and 40% (w/w).
Extract contact effects were determined on 1st-4th instar larvae as well as adult beetles. Twenty individuals for each development stage were transferred to Whatman filter paper in 90 mm disposable Petri dishes. The plant extract suspensions were shaken for 1 min and 2 ml of extract suspension was applied to each batch using a Potter spray tower set at 10 PSI with a 0.7 mm diameter fine droplet spray nozzle. After spraying, the insects were left to dry for 10 min at room temperature before transferring into a 1 l glass jar with fresh potato leaflets. The insects were incubated at 28±2° C. and 16:8 hr photophase. Controls were treated with 2 ml sterile distilled water containing 10% acetone. Imidacloprid (CONFIDOR SL, Bayer) was used as a standard control and three groups of 20 insects were treated with 2 ml of imidacloprid at the manufacturer's recommended rate (1.5 μl/ml) in distilled water. Mortalities were recorded at 24 h intervals for 7 d. Data were submitted to a randomized complete block statistical analysis. Three replicates of each developmental stage were sprayed with a plant extract suspension, three were used as control in each trial and three trials were performed each consisting of 3 treatment replicates.
Screening data were corrected for mortality in the controls using Abbott's formula (Abbott, J Econ Entomol 18:265-267 (1925)) and then normalised using an arcsine transformation. Transformed data were analyzed using ANOVA (P<0.05) and Tukeys mean separation (P≦0.05). All statistical analyses were carried out using MINITAB Release 14. Colorado potato beetle mortality obtained from dose-mortality bioassay utilizing H. lupulus was corrected for control mortality using Abbott's formula (supra). The corrected mortality data were analyzed using POLO-PC to estimate LC50, LC90 and the regression line slopes. Homogeneity of the regression lines between various developmental stages were tested using the maximum likelihood approximation test (P≦0.05).

[4] = test system: obliquebanded leafrollers, Choristoneura rosaceana; test: Electroantennogram (EAG) responses of obliquebanded leafrollers; type: in vivo; settings: 2 mg on filter paper
Method: (§1) Five natural-product sources were used per study. The plants (Table 1) were all collected from sandy lime soil during spring and summer of 2002 in Ta ? liçiftlik, Tokat, in a temperate region of Turkey, where the altitude is 600 m. Samples were dried at room temperature for 3 wk in the dark and subsequently were ground in a mill (M 20 IKA Universal Mill, IKA Group). Ground plants were stored in 2000-ml glass jars at 18±2° C. in the dark. Fifty-gram samples were placed into 1000-ml Erlenmeyer flasks with 500-ml of methanol (Sigma). […] The resulting residue was weighed and mixed with acetone to yield a 20% (w/w) plant suspension.
(§2) The EAG system and test protocols have been detailed by Stelinski et al. (2003 J. Chem. Ecol. 29: 403-422; Physiol. Entomol. 28: 97-107). Two milligrams of plant extracts (Table 1) or pheromone ((Z)11-14:Ac (lot #10010), Shin Etsu Tokyo, Japan) were diluted in acetone (20 μl total solution) and pipetted onto 1.4×0.5 cm strips of Whatman No. 1 filter paper. […] EAGs were measured as the maximum amplitude of depolarization elicited by 1-ml puffs of air through EAG-cartridges directed over live-insect preparations.
(§3) Male and female obliquebanded leafrollers and redbanded leafrollers were 2-4 d old when used for electroantennograms. […] For each sample tested, EAGs were recorded from ten moths of each sex. […]

[5] = test system: redbanded leafrollers, Argyrotaenia velutinana; test: Electroantennogram (EAG) responses of redbanded leafrollers; type: in vivo; settings: 2 mg on filter paper
Method: as §1, §2, §3

[6] = test system: obliquebanded leafrollers, Choristoneura rosaceana; test: Eight-arm olfactometer attraction study; type: in vivo; settings: 25 μl of 20% w/w extract in acetone, counts after 24 h
Excerpt: Male or female obliquebanded leafrollers used in this study were 1-3 d old. They were reared as described above. Discs, 55 mm in diameter, were cut from the sticky liners of pheromone traps (LPD Scenturian Guardpost, Suterra, Bend, Oreg.) intended for catching Lepidoptera. Each sticky disc was cleaned with acetone and placed into sterile 90-mm disposable Petri dish. Twenty millimeter diameter discs, cut from Whatman Number 1 filter paper, were placed centrally on top of the 55-mm sticky discs. Twenty-five microliters of each plant extract, diluted in acetone (20% w/w), was applied to the central filter paper disc. In the control treatment, 25-μl of acetone was applied to the disc. In the positive control, 25-μl of the pheromone component (Z)11-14:Ac was applied. In addition to positive control and negative or non-treatment control discs, a three-component obliquebanded leafroller pheromone in a rubber septum was also used as a standard. The septa were loaded with 0.485 mg of (Z)- and 0.015 mg (E)-11-tetradecenyl acetates and 0.026 mg of (Z)-11-tetradecenol (Hill and Roelofs 1979). […]
For the olfactometer test, the number of male insects attracted by each treatment was expressed as a percentage of the total number of insects tested in each replicate. […] The transformed data were analyzed using single-factor ANOVA (Minitab Release 14) (P=0.05) followed by Tukey's test (P=0.05). […]

Row | SMILES | Mortality % (mean ± SEM) caused by contact effect ([1]; 24 h incubation at 28 ± 2° C.) [a A %] | Mortality % (mean ± SEM) caused by contact effect ([1]; 48 h incubation at 28 ± 2° C.) [a A %] | Residual toxicities % (mean ± SEM) ([2]; 48 h incubation at 28 ± 2° C.) | Residual toxicities % (mean ± SEM) ([2]; 72 h incubation at 28 ± 2° C.) [a A %] | % Mortality ± SEM, contact toxicity ([3]; 1st Instar Larvae) [%] | % Mortality ± SEM, contact toxicity ([3]; 2nd Instar Larvae) | % Mortality ± SEM, contact toxicity ([3]; 3rd Instar Larvae) [%] | % Mortality ± SEM, contact toxicity ([3]; 4th Instar Larvae) | % Mortality ± SEM, contact toxicity ([3]; Adult) [a %] | EAG responses (mV ± SE) upon stimulation with 1 ml of air through stimulus cartridge ([4]; females) [ab mV] | EAG responses (mV ± SE) upon stimulation with 1 ml of air through stimulus cartridge ([4]; males) [a mV] | EAG responses (mV ± SE) upon stimulation with 1 ml of air through stimulus cartridge ([5]; females) [a mV] | EAG responses (mV ± SE) upon stimulation with 1 ml of air through stimulus cartridge ([5]; males) [a mV] | Attraction (Mean ± SEM) % ([6]; females, listed as Pheromone on paper) | Attraction (Mean ± SEM) % ([6]; males) [bc %]
1 | O=[N+]([O-])NC1=NCCN1Cc1ccc(Cl)nc1 [Imidacloprid] | 100 ± 0.00 | 100 ± 0.00 | 71.9% and 71.89 ± 0.25 a A % | 83.64 ± 0.23 | 100 | 94.8% and 94.82 ± 3.05 a % | 100 | 11.5% and 11.57 ± 0.11 b % | 44.37 ± 3.32 | – | – | – | – | – | –
2 | CC/C=C\CCCCCCCCCCOC(C)=O [Pheromone, (Z)11-14:Ac] | – | – | – | – | – | – | – | – | – | 0.45 ± 0.06 | 4.87 ± 0.32 | 0.43 ± 0.06 | 5.42 ± 0.40 | 1.1% and 1.14 ± 1.12 b % | 4.05 ± 1.66
